In US12152248B2, “Membrane-penetrating peptides to enhanced transfection and compositions and methods for using same” (LIFE TECHNOLOGIES CORPORATION, priority 2013, dated 2024):

Columns and labels:
Type in all cases: cell-based
[1] = tested on: HEK293, HeLa, COS-7, LNCaP, A549 and HepG2; experiment: Comparison of transfection reagents, GFP fluorescence images (FIG. 2); conditions: panel of six cell lines; pcDNAEF1a/emGFP; 48 hrs; Peptide 1 used with LIPOFECTAMINE® 3000
Experimental: Transfection complexes for transfecting DNA into cells in culture were prepared according to manufacturer protocol. LIPOFECTAMINE® 2000 and LIPIFECTAMINE® LTX were purchased from Life Technologies Corp. (Carlsbad, CA), FUGENE® HD was purchased from Promega Corp. (Fitchburg, WI), and X-TREMEGENE™ HP was purchased from Roche Diagnostics (Basel, Switzerland).
To prepare transfection complexes containing the non-naturally occurring peptides described above, Peptide 1 having the following sequence […] (SEQ ID NO. 89) was synthesized and provided as a dry powder. The dry powder was reconstituted in sterile ultrapure water to a final concentration of 4.35 mg/ml and allowed to fully dissolve. This stock peptide solution was set aside for use in the next step.
To prepare the lipid aggregate-DNA-peptide complexes, LIPOFECTAMINE® 3000 reagent (Life Technologies Corp., Carlsbad, CA) was obtained. […]
Following the incubation, the lipid-peptide-DNA complexes were added to cells that were seeded the previous day with fresh growth medium; for 96-well plates, 10 μl of the lipid-peptide-DNA was added to the cells, for 24-well plates, 50 μl of the lipid-peptide-DNA mixture was added to the cells, for 6-well plates, 250 μl of the lipid-peptide-DNA was added to the cells. The cells were incubated in the presence of the lipid-peptide-DNA for approximately 24-48 hrs, and analyzed. […]

HeLa cells [2] = experiment: Effect of transfection reagent dosage on transfection efficiency and GFP expression (FIG. 3); conditions: 96-well, 0.1-0.4 μl reagent, Peptide 1 with LIPOFECTAMINE® 3000 vs LIPOFECTAMINE® 2000 and LTX
Text: FIG. 3A is a graph comparing the relative transfection efficiency for an expression vector encoding GFP transfected into cultured HeLa cells using increasing dosages of three different commercially available lipid aggregate formulations, LIPOFECTAMINE® 2000 (open circles), LIPOFECTAMINE® LTX (open squares), and LIPOFECTAMINE® 3000 in combination with a peptide according to an embodiment (open triangles);
FIG. 3B is a graph comparing the intensity of GFP expression in HeLa cells transfected with an expression vector encoding GFP using increasing dosage of three different commercially available lipid aggregate formulations, LIPOFECTAMINE® 2000 (open circles), LIPOFECTAMINE® LTX (open squares), and LIPOFECTAMINE® 3000 in combination with a peptide according to an embodiment (open triangles);
HeLa cells were plated in 96-well plates and transfected with pcDNAEF1a/emGFP using 0.1 μl, 0.2 μl, 0.3 μl or 0.4 μl of LIPOFECTAMINE® 2000, LIPOFECTAMINE® LTX, or LIPOFECTAMINE® 3000 reagent in combination with Peptide 1 as described in Example 1. Transfection efficiency and relative protein expression as measured by […] was determine for each condition. […]

HeLa cells [3] = experiment: GFP transfection with lipid alone, peptide alone or both (FIG. 8); conditions: 96-well, 48 hrs, Peptide 1 in the presence of LIPOFECTAMINE® 3000, 0.05-0.5 μl
Text: FIG. 8 are bar graphs depicting relative transfection efficiency (upper graph, GFP+ as % of Single Cells Only) or relative expression level per cell (lower graph; Single cells Only Mean FL-1) of HeLa cells transfected with a GFP expression vector using the indicated doses (in μl) of LIPOFECTAMINE® 3000 alone (LF3K), LIPOFECTAMINE® 2000 (LF2K), a peptide according to an embodiment (Peptide 1) or LIPOFECTAMINE® 3000 in combination with a peptide according to an embodiment (LF3K+ Peptide 1);
HeLa cells were seeded onto 96-well plates and transfected for 48 hrs with […] of pcDNAEF1a/emGFP using either 0.05 μl, 0.1 μl, 0.2 μl, 0.3 μl, 0.4 μl, or 0.5 μl of LIPOFECTAMINE® 3000 Reagent alone (LF3K), LIPOFECTAMINE® 2000 (LF2K), Peptide 1 alone (Peptide 1), or LIPOFECTAMINE® 3000 in combination with Peptide 1 as described in Example 1 (LF3K+Peptide 1). Transfection efficiency and protein expression as measured by Fluorescence intensity (FL1-H) were determined. Results are depicted in FIG. 8.

SRRARRSPRESGKKRKRKRGGGSGGGSGGGSRRRRRRRRRRR [Peptide 1, 89; MPP DPV10/6 fused to Linker 1 and cationic CP1]
transfection efficiency (GFP expression, FIG. 2) [1]: improved transfection efficiency substantially | relative expression of GFP (FIG. 3B) (HeLa cells [2]): improves relative expression of GFP in the cells over the entire range of transfection reagent dosages tested | relative transfection efficiency (FIG. 3A) (HeLa cells [2]): improves transfection efficiency of the cells over the entire range of transfection reagent dosages tested | transfection efficiency and protein expression (FIG. 8) (HeLa cells [3]): significantly enhances transfection efficiency and protein expression
